# Measured values reported in PubChem BioAssay AID1902 (Broad Institute, 2009).
# Calls of active or inactive are those of the source.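 How the source made its calls: active means EC50 no more than a set limit of log units above the highest dose; inactive means the rest.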
# Molecular target: S. pyogenes SKKanGAS, kanamycin survival, BacTiterGlo, 6 h
# Experiment: SKKanGAS survival reduction under kanamycin, dose response, streptokinase promoter inhibitor project, SKKanGAS strain, luminescence, dose confirmation (AID 1902);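 further: lower survival reflects blocked streptokinase promoter driving kanamycin resistance gene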
row,SMILES,EC50
1,O=c1cc(C(F)(F)F)[nH]c2c(C(F)(F)F)cccc12,2.34 µM
2,CCOc1ccc2nc(N3C(=O)/C(=C/c4ccc(Cl)cc4)NC3=S)sc2c1,1.3 µM
3,CCCCn1c(=O)c(C(=O)NCCc2ccccc2)c(O)c2ccccc21,3.73 µM
4,CC(=O)Nc1ccc(S(=O)(=O)N2CCN=C2SCc2ccc(C)cc2)cc1,> 15 µM (inactive)
5,Cc1cccc(C)c1Nc1c(-c2ccccn2)nc2ccccn12,6.67 µM
6,N#C/C(=C(/O)c1cc2ccccc2o1)c1nc2ccccc2s1,9.58 µM
7,Cc1[nH]c(N=Nc2ccccc2)nc1N=Nc1ccccc1,2.8 µM
8,Cc1ccc(NNC(=O)C2CCC2)cc1C,> 15 µM (inactive)
9,Cc1cccc2sc(NNC(=O)c3cc(=O)c4ccccc4o3)nc12,0.42 µM
10,COc1ccc(O)c(/C=N/Nc2nc(Nc3ccccc3)nc(-n3nc(C)cc3C)n2)c1,0.868 µM
11,Cc1cccc(C)c1-n1cccc1/C=C1\SC(=S)N(c2cccc(C(=O)O)c2)C1=O,2.26 µM
12,Clc1ccc(-c2csc(Nc3ccccc3)[n+]2Cc2ccco2)c(Cl)c1,3.35 µM
13,C=C(C)COc1ccc(-c2n[nH]c(C)c2-c2ccccc2)c(O)c1,2.4 µM
14,Cc1ccc2cc(CN(Cc3cccs3)C(=O)c3ccco3)c3nnnn3c2c1C,4.71 µM
15,Cc1ccc(F)c(NC(=O)/C(C#N)=C(\O)c2ccc(C(C)(C)C)cc2)c1,6.33 µM
16,Cc1cc(C)c(-c2cc(NC(=O)COC(=O)c3ccc(CO)cc3)n(-c3ccccc3)n2)cc1C,8.32 µM
17,CCOC(=O)c1cnc(-n2nc(C)cc2C)nc1Nc1ccc(OC)cc1,0.185 µM
18,Oc1c(C=Nc2cccc3cccnc23)sc2ccccc12,3.94 µM
19,CN(C(=O)Cc1c(C(=O)O)n(C)c2ccccc12)c1ccc(F)cc1,> 15 µM (inactive)
20,Cc1cc(Br)cc(/C=N/NC(=O)c2ccc3c(c2)OCO3)c1O,1.9 µM
21,CCOc1ccc(C(=O)NC(=S)Nc2ccc(NC(=O)CC)cc2)cc1[N+](=O)[O-],4.35 µM
22,Cc1ccc(OP(=O)(Nc2cccc(C)c2)Oc2ccc(C)cc2)cc1,9.09 µM
23,CC(C)=CCC/C(C)=C/Cc1c(O)ccc(C(=O)/C=C/c2ccc(O)cc2)c1O,1.02 µM
24,COc1ccc(S(=O)(=O)N[C@@H](C)C(=O)OCC(=O)Nc2cc3oc4ccccc4c3cc2OC)cc1,1.42 µM
25,Cc1nn(C(C)C(=O)NC2C(=O)N3C(C(=O)O)=C(CSc4nnnn4C)CSC23)cc1Cl (stereo not given),< 0.06 µM
26,O=C(Nc1ccc(OCC(F)(F)C(F)F)c(C(F)(F)F)c1)c1ccc(Cl)cc1,3.62 µM
27,COc1cccc(COC(=O)c2sc3nc4n(c(=O)c3c2C)CCC4)c1OC,4.76 µM

row,SMILES,EC50
1,Cc1[nH]n2c(=O)cc(C(C)(C)C)nc2c1-c1ccccc1,2.77 µM
2,CCC(C)Sc1cccc(-c2nc3ccc(C)cn3c2NCc2ccccc2)c1 (stereo not given),3.24 µM
3,Cc1conc1NC(c1cccs1)c1ccc2cccnc2c1O (stereo not given),1.23 µM
4,CCCC1CC(C(=O)NC(C(C)Cl)C2OC(SC)C(O)C(O)C2O)N(C)C1 (stereo not given),< 0.06 µM
5,CC(C)[C@@H](C(=O)NC1CCCC1)N1C(=O)N2CCc3c([nH]c4ccccc34)[C@@]2(C)C1=O,> 15 µM (inactive)
6,CCC(NC(=S)NC1CCCCC1)c1ccc(C(C)C)cc1 (stereo not given),5.2 µM
7,COc1ccccc1-n1cnc2c(c1=O)c1nc3ccccc3nc1n2-c1ccc(C)c(C)c1,9.11 µM
8,Cc1ccc(C(=O)C2=C(O)C(=O)N(Cc3ccco3)C2c2cccc(Br)c2)o1 (stereo not given),6.67 µM
9,Cc1cc(C)c2c(C(C)(C)C)nn(-c3ccccc3)c2n1,2.97 µM
10,CCc1c(O)nc(SCC(=O)Nc2nc3ccccc3s2)n(C2CCCCC2)c1=O,8.89 µM
11,CN1CCN(C(c2ccc(C(F)(F)F)cc2)c2ccc3cccnc3c2O)CC1 (stereo not given),3.02 µM
12,O=C(Nc1ccc(Cl)c(Cl)c1)N1CC=C(c2ccccc2)CC1,8.08 µM
13,CN(Cc1cnc2nc(N)nc(N)c2n1)c1ccc(C(=O)N[C@@H](CCC(=O)O)C(=O)O)cc1,0.61 µM
14,Cn1cnnc1SCc1ccc(C(=O)N=Nc2c(O)n(Cc3ccc(Cl)cc3)c3ccccc23)cc1,4.51 µM
15,Cc1cc(/C=C2\SC(=O)NC2=O)c(C)n1-c1ccc(N2CCOCC2)cc1,1.58 µM
16,COc1cccc(-c2cc(C(=O)NCC3CCCO3)c3cc(Br)cc(C)c3n2)c1 (stereo not given),> 15 µM (inactive)
17,O=C(CN1CCc2ccccc2C1)Nc1ccccc1N1CCCCCC1,2.42 µM
18,O=C(Nc1ccc(OC(F)(F)F)cc1)C1CCCN(S(=O)(=O)c2cnc[nH]2)C1 (stereo not given),> 15 µM (inactive)
19,CC1=NN(C(N)=S)C(=O)C1N=Nc1c(C)cc(C)cc1C (stereo not given),5.77 µM
20,COc1cc(/C=C/C(=O)OC2CC3CCC2(C)C3(C)C)ccc1O (stereo not given),7.08 µM
21,N#CC(C(=O)C12CC3CC(CC(C3)C1)C2)c1nc2ccccc2[nH]1 (stereo not given),3.23 µM
22,Cc1nn(-c2nc3ccccc3[nH]2)c(N)c1-c1ccc(Cl)cc1,1.53 µM
23,COc1cccc(NC(=O)NCCCCc2ccccc2)c1,> 15 µM (inactive)
24,O=C(NC(Cc1c[nH]c2ccccc12)C(=O)N/N=C/c1cccc2ccccc12)c1cccs1 (stereo not given),5.37 µM
25,CC(C)c1c(C(=O)N/N=C/c2cccc(OCc3ccc(F)cc3)c2)nnn1-c1nonc1N,5.19 µM
26,Cc1ccc(/C=C2/Sc3ccc(C(=O)N4CCN(C)CC4)cc3NC2=O)cc1,13.4 µM
27,CCN(CC)CCN(C(=O)CCS(=O)(=O)c1ccccc1)c1nc2cc(C)cc(C)c2s1,> 15 µM (inactive)

row,SMILES,EC50
1,O=C(NNC(=O)c1cc(-c2ccc(Cl)cc2Cl)nc2ccccc12)Nc1ccccc1,3.04 µM
2,O=c1/c(=C\c2cccc(O)c2)sc2nc(-c3ccccc3)c(-c3ccccc3)n12,7.63 µM
3,COc1ccc(Cl)cc1C(=O)NNC(=S)NC(=O)c1cc(-c2ccc(Cl)cc2)nc2ccccc12,0.254 µM
4,CN1CCN(C2Cc3ccc(Cl)cc3Sc3ccc(F)cc32)CC1 (stereo not given),6.47 µM
5,O=S(=O)(Nc1nc2ccccc2nc1Cl)c1ccc2ccccc2c1,> 5 µM (inactive)
6,O=C(NC1=NCCS1)c1cc(-c2ccccc2)nn1-c1ccccc1,6.06 µM
7,CCCOc1ccc(/C(O)=C2/C(=O)C(=O)N(c3ccccn3)C2c2ccc(OC)cc2)cc1C (stereo not given),6.28 µM
8,CCC(CC)C1=NN2C(=N)/C(=C\c3cc(C)n(-c4cccc(C)c4)c3C)C(=O)N=C2S1,2.91 µM
9,CC(/C=C1\SC(=S)N(CCCC(=O)Nc2ccc(C(=O)O)cc2)C1=O)=C\c1ccccc1,0.19 µM
10,CSc1ccc(S(=O)(=O)NCC(=O)OCC(=O)N2CCCC2=O)cc1[N+](=O)[O-],9.29 µM
11,O=C(NC12CC3CC(CC(C3)C1)C2)c1ccc([N+](=O)[O-])o1,2 µM
12,CC(C)(C)c1ccc(-c2noc(-c3ccc4c(c3)CCO4)n2)cc1,7.95 µM
13,O=C(c1ccccc1Cl)N1CCN(S(=O)(=O)c2cccs2)CC1,> 15 µM (inactive)
14,CCSc1n[nH]c2nc3c(c(=O)n12)C1(CCCC1)Cc1ccccc1-3,3.75 µM
15,CCOc1cc(N2CCOCC2)c(OCC)cc1NC(=O)C1=NN(c2cccc(C)c2)C(=O)CC1,13.1 µM
16,CCOC(=O)c1sc2nc(Cc3ccc(Cl)cc3)[nH]c(=S)c2c1C,3.21 µM
17,COc1ccc(/C=N/n2c(C)nc3c([nH]c4ccccc43)c2=O)cc1CN1CCCC(C)(C)C1,7.93 µM
18,CCCCNC(=O)c1sc(=S)n2c1[nH]c(=O)c1ccccc12,9.08 µM
19,COC(=O)C1CN(C#N)N(c2ccc(Cl)cc2)C12c1ccccc1-c1ccccc12 (stereo not given),4.21 µM
20,C/C(=N\Nc1nc(N2CCCCCC2)nc(N2CCCCCC2)n1)c1ccccc1,3.69 µM
21,CC(C)Cn1c(=O)c(C(=O)Nc2ccncc2)c(O)c2ccccc21,4.17 µM
22,O=C(Cc1ccc([N+](=O)[O-])cc1)N/N=C/c1ccc([N+](=O)[O-])o1,9.86 µM
23,Cc1cccc(OCC(=O)Nc2ccc(C(=O)Nc3ccccc3C(=O)O)cc2)c1C,2.41 µM
24,CCC(C)Sc1cc(-c2nc3ccc(C)cn3c2NCc2ccccc2)ccc1OC (stereo not given),1.42 µM
25,CC1CC(C)CN(Cc2nc(N)nc(Nc3ccc4ccccc4c3)n2)C1 (stereo not given),1.41 µM
26,CC(=O)c1sc(N/N=C\c2c(O)ccc3ccccc23)nc1C,4.08 µM
27,Cc1cc(C)c2nc(SCCc3ccccc3)nc(C)c2c1,5.85 µM

row,SMILES,EC50
1,CCCn1c(NC(=O)C23CC4CC(CC(O)(C4)C2)C3)nc2ccccc21,3.09 µM
2,CC(C)C[C@H](NC(=O)c1nc[nH]c1C(=O)N1CCc2ccccc2C1)C(=O)OCc1ccccc1,9.87 µM
3,CCCOc1ccc(C(=O)NNC(=S)NC(=O)c2ccccc2[N+](=O)[O-])cc1,1.8 µM
4,CCc1c(C)c(C#N)c2[nH]c3ccccc3n2c1=S,14.1 µM
5,CC1CCN(c2nc(-c3ccc(F)cc3)cc(C(F)(F)F)n2)CC1,1.71 µM
6,COc1ccc(C(=O)CC(=O)C(=O)Nc2ccccc2C(F)(F)F)cc1,2.05 µM
7,Cc1ccc(NC(=S)NC(=O)c2ccc(-c3ccc(Cl)cc3)o2)c(O)c1,0.531 µM
8,COc1ccc(C(=O)NCC(=O)OCCCOC(=O)CNC(=O)c2ccc(OC)c(OC)c2)cc1OC,> 15 µM (inactive)
9,O=c1cc2c(nn1Cc1ccc(Cl)cc1Cl)-c1ccccc1CC2,5.37 µM
10,O=C(c1nc2ccc(Cl)cn2c1CN1CCC(CO)CC1)N1CCc2ccccc2C1,> 15 µM (inactive)
11,CCc1ccc(/C=C2\SC(=S)N(CCCC(=O)Nc3ccc(C(=O)O)cc3)C2=O)cc1,7.83 µM
12,O=C(Nc1nc(-c2ccccn2)cs1)C12CC3CC(CC(O)(C3)C1)C2,1.44 µM
13,CC1=NN(c2nc3ccccc3[nH]2)C(=O)C1Cc1ccccc1 (stereo not given),0.507 µM
14,COc1ccc(-c2cc(C(=O)NNC(=S)NC(=O)c3c(-c4ccccc4)noc3C)[nH]n2)cc1,0.2 µM
15,O=C(Nc1nnc(-c2ccccc2Cl)o1)c1ccc(S(=O)(=O)N2CCCCCC2)cc1,0.264 µM
16,Clc1ccc(-c2n[nH]c3c2CCC3)c(Cl)c1,0.975 µM
17,COc1cc(/C=C2/SC(=S)N(Cc3ccccc3)C2=O)cc(Cl)c1O,2.58 µM
18,CC(Oc1ccccc1)C(=O)NC1C(=O)N2C1SC(C)(C)C2C(=O)O (stereo not given),0.114 µM
19,Cc1ccc(/C=C/C(=O)NC(=S)Nc2ccc(S(=O)(=O)Nc3cc(C)on3)cc2)cc1,9.27 µM
20,O=C(CCn1cnc(-c2ccccc2)c1-c1ccccc1)N/N=C/c1ccccc1O,0.522 µM
21,Cc1oc(-c2ccccc2Cl)nc1Cn1cccc1C1=NC(c2ccccc2)CO1 (stereo not given),> 15 µM (inactive)
22,CC1(C(=O)OCC(=O)Nc2nc(-c3ccc(F)c(F)c3)cs2)CC1(Cl)Cl (stereo not given),6.72 µM
23,O=C1C=C(Nc2ccccc2)c2ccccc2C1=O,2.44 µM
24,Cc1cc(C)c(-c2noc(C(=O)OC(C)(C)C)c2C(=O)OC(C)(C)C)c(C)c1,3.58 µM
